Results published in patent US20170071967A1, “IMMUNOGENIC LIPOSOMAL FORMULATION” (GlaxoSmithKline Biologicals, SA, priority 2014, published 2017).

System: rabbits
Assay: Rabbit pyrogenicity test (surrogate measure of incorporation into liposomes)
Type: in vivo
Settings: free (non-liposomal) CRX-601
Protocol: The tests were performed at Pacific Biolabs (Hercules, Calif.) as per their SOP 16E-02.

SMILES: CCCCCCCCCCC[C@H](CC(=O)N[C@H]1[C@H](OC[C@H](NC(=O)C[C@@H](CCCCCCCCCCC)OCCCCCCCCCC)C(=O)O)O[C@H](CO)[C@@H](OP(=O)(O)O)[C@@H]1OC(=O)C[C@@H](CCCCCCCCCCC)OCCCCCCCCCC)OCCCCCCCCCC [CRX-601]
- max non-pyrogenic dose: 0.0025 µg/kg
